The values that follow come from patent publication US7374894B2, “Methods of identifying compounds that modulate IL-4 receptor-mediated IgE synthesis utilizing a chloride intracellular channel 1 protein” (Rigel Pharmaceuticals, Inc., priority 2002, dated 2008).

In experiment [1] the test system is IL-4 induced germline ε transcription. Nature of the experiment: Re-infection assay in naïve A5T4 reporter cells (BFP-/BFP+ GFP FACS). The experiment is classed as cell-based, human. The following applies: for functional category of mutant as compared to wild type peptide, based on reporter ratio: % change calculated after subtracting 1.0 from the individual ratios; for Reporter Ratio: screening in the A5T4 reporter line, DL03 wt and double-residue mutants. Here is the method:
The ability of peptide DL03 wt (SEQ ID NO:1) to inhibit germline ε transcription was confirmed in naïve cells. Briefly, Phoenix cells were transfected with a retroviral vector encoding a BFP-DL03 wt (SEQ ID NO:1) peptide fusion as described in WO 99/58663 and WO 97/27213. Naïve A5T4 cells were infected with the resultant virions and grown for 3 days. The infected cells were stimulated with IL-4 (60 U/mL) and, after 3 days, the cells were assessed by FACS for BFP and GFP. […] The BFP fluorescence data corresponding to the BFP^+ and BFP^− populations are provided in Panel A. The GFP fluorescence data corresponding to the BFP^+ and BFP^− populations are presented in Panel B. The reporter ratio for this purpose is determined as the geometric mean of the GFP fluorescence of the BFP^− population divided by the geometric mean of the GFP fluorescence of the BFP^+ population as presented in panel C. The reporter ratio for the DL03 in this re-infection assay was 1.50.
A collection of DL03 mutants was generated by replacing double amino acid residues in the sequence of DL03 wt (SEQ ID NO:1) with a different amino acid, typically an alanine, as described in copending application Ser. No. 10/095,659. The functional profiles for the mutants derived from DL03 wt (SEQ ID NO:1) was obtained by constructing and screening for activity in the A5T4 reporter cell line in the manner described above. The activity of each mutant at the germline ε promoter is reflected in the reporter ratio as described above. The reporter ratios were the functional values that were used to develop the functional profiles.
Comparison of the interaction and functional profiles was performed by categorizing the mutants of DL03 based on the functional and interaction assays. Based on the reporter ratio, described in panel C of FIG. 4, each mutant was categorized into one of four functional categories: (1) reduction of function (ROF); (2) loss of function (LOF); (3) increase of function (IOF) or (4) functionally neutral (N) as compared to the activity of the wild type peptide, here DL03 wt (SEQ ID NO:1). As mentioned previously, cells expressing a peptide that inhibits germline ε transcription have reporter ratios of ≧1.1. Cell expressing a loss of function (LOF) mutant have a reporter ratio of […]. […] Functionally neutral mutants have reporter ratios that fall within ±50% of that of the DL03 wt (SEQ ID NO:1). The % increase or decrease in reporter ratio is calculated after subtracting 1.0 from the individual ratios. Using these criteria, peptide DL03IL (SEQ ID NO:2) and peptide DL03LA (SEQ ID NO:4) were designated as ROF mutants, peptide DL03KP (SEQ ID NO:3) was designated as a IOF mutant, peptides DL03TS (SEQ ID NO:5), DL03GA (SEQ ID NO:6), DL03TT (SEQ ID NO:7), DL03AS (SEQ ID NO:8), and DL03MT (SEQ ID NO:9) were designated as neutral. No LOF mutant were found for the DL03 clone.

The target in a further experiment is T1, human CLIC1 (hCLIC1) (Homo sapiens, UniProt O00299).
T1 construct: expressed in transfected cells; prey cDNA from the A5T4 reporter line (derived from BJAB B-cells)
Put plainly: β-galactosidase yeast two hybrid (YTH) interaction assay. The experiment is classed as binding. Here is the method:
Potential binding partners for peptide DL03 wt (SEQ ID: 1) were identified in a β-galactosidase yeast two-hybrid (YTH) assay using peptide DL03 wt (SEQ ID: 1) as bait and a cDNA library constructed from the A5T4 reporter cell line as prey. Binding was assessed by β-galactosidase quantification using BetaFluor (Novagen) as a substrate. A negative interaction control (no cDNA fused downstream of the GAL4 activation domain sequence) was also run. A general outline of the YTH assay is illustrated in FIG. 5A. Following clustering, filtering to remove non-specific bait hits (e.g., GFP and BFP), singletons and clusters recognized by 10 or more cDNA baits (based upon historical YTH assays), and prioritization, 22 prey clones were identified as hits.
Potential targets identified in the YTH assay were reconfirmed as generally outlined in FIG. 6. The cDNA clones identified as hits in the YTH assay were purified and rescreened for interaction with the DL03 wt (SEQ ID NO:1) peptide in a YTH assay. The hit clones were also screened in a control assay for interaction with the BFP using a vector (pGBKT7) that contained only the BFP and not the DL03 peptide. At this stage, 12 putative target clones remained.
The interaction of DL03 wt (SEQ ID NO:1) peptide and its mutants with the clones identified as potential targets for the peptide DL03 wt (SEQ ID NO:1) was then quantified in a β-galactosidase YTH assay. The YTH assay was performed in the manner described above. A general outline of this YTH assay is illustrated in FIG. 5B. For each clone tested, an interaction profile was developed by comparing the β-galactosidase activity of each mutant to that of the wild type peptide as described above.
The interaction of these IOF and ROF mutants with different polypeptides encoded by the putative target clones were quantified using the YTH assay described above. Based on the YTH assay, for each putative target, the mutants were categorized into the following four interaction categories: (1) reduction of interaction (ROI); (2) loss of interaction (LOI); (3) increase of interaction (IOI); and (4) interactionally neutral (N), by assessing the binding affinity ratio of the mutant peptide and the wild type peptide (β-gal activity of mutant/wild type) to the putative target. For the YTH interaction assay mutants DL03IL (SEQ ID NO:2), DL03KP (SEQ ID NO:3), DL03LA (SEQ ID NO:4), as well as originally identified peptide DL03 wt (SEQ ID NO:1) were used.
Based on these functional and interaction categorizations, graphic profile representations for each potential target polypeptide were obtained using a weighted categorization process as depicted in FIG. 9. […]

A further experiment has as its system germline α promoter. Put plainly: TAQMAN assay of endogenous germline α transcription in ST486 cells stimulated with TGF-β. The format is cell-based. To be noted: TGF-β 40 ng/ml, average of 3 values, p=0.3228. As to the method: The assay was similar to that described in the immediately preceding section, except that ST486 cells (ATCC # CRL-1647) engineered to express the tetracycline-regulated transactivator were infected and the infected cells were stimulated with TGF-β (40 ng/ml; Peprotech). The primers and probe, which are specific for the transcription product driven by the ST486 endogenous α promoter, were as follows (the probe was labeled at the 5′-end with Fam and at the 3′-end with Tamra): […]
On the technique in general: Real-time PCR tracks product formation cycle by cycle.

For the substance “LYAAI LLHGATTASMTKPLA (LYAAILLHGATTASMTKPLA; peptide generated from combinatorial library) [DL03TS, double-residue mutant of DL03 wt]”, in experiment [1], the “functional category of mutant as compared to wild type peptide, based on reporter ratio” value (“functional category … on reporter ratio” for short) is listed as “neutral” and the “Reporter Ratio” value is listed as 1.49.
The matching figures for “LYTS I LLHARTTASMTKPLA (LYTSILLHARTTASMTKPLA; peptide generated from combinatorial library) [DL03GA, double-residue mutant of DL03 wt]”: “neutral” and 1.67.
For “LYTS I LLHGAAAASMTKPLA (LYTSILLHGAAAASMTKPLA; peptide generated from combinatorial library) [DL03TT, double-residue mutant of DL03 wt]”, in experiment [1], the “functional category … on reporter ratio” value is on record as “neutral” and the “Reporter Ratio” value stood at 1.43.
The matching figures for “LYTS I LLHGATTASAAKPLA (LYTSILLHGATTASAAKPLA; Peptide generated from combinatorial library) [DL03MT, double-residue mutant of DL03 wt]”: “neutral” and 1.30.
As for “LYTS I LLHGATTASMTAALA (LYTSILLHGATTASMTAALA; peptide generated from combinatorial library) [DL03KP, double-residue mutant of DL03 wt]”, the “functional category … on reporter ratio” value in experiment [1] is given as “IOF (An increase of function mutant (IOF) shows a >50% increase in reporter ratio)”. Further, the “binding to human CLIC1 in yeast two hybrid interaction assay” value (shortened to “binding to human CLIC1”) with human CLIC1 (hCLIC1) is “found to bind”.
Turning to “LYTS I LLHGATTASMTKPAR (LYTSILLHGATTASMTKPAR; peptide generated from combinatorial library) [DL03LA, double-residue mutant of DL03 wt]”, the “binding to human CLIC1” value in the experiment with human CLIC1 (hCLIC1) was “found to bind”.
As to “LYTS I LLHGATTASMTKPLA (LYTSILLHGATTASMTKPLA; peptide generated from a combinatorial library) [DL03wt, peptide 20-mer identified from a retroviral random library, expressed in cells as BFP-peptide fusion]”, the “endogenous α inhibition ratio” value with germline α promoter is 0.66. The “binding to human CLIC1” value in the experiment with human CLIC1 (hCLIC1) is reported as “found to bind”.
With “LYTS I LLHGATTRAMTKPLA (LYTSILLHGATTRAMTKPLA; Peptide generated from combinatorial library) [DL03AS, double-residue mutant of DL03 wt]”, in experiment [1], the “functional category … on reporter ratio” value is “neutral” and the “Reporter Ratio” value is recorded as 1.57.
On to “LYTSAALHGATTASMTKPLA (Peptide generated by a combinatorial library) [DL03IL, double-residue mutant of DL03 wt]”, for which the “binding to human CLIC1” value with human CLIC1 (hCLIC1) is reported as “found to bind”.
